{"source": "paper PMC8454703", "about": "(Biochemical Journal, 2021)", "assay_in_all_cases": "SPR, protein over lipid vesicles on L1 chip", "assay_type_in_all_cases": "binding", "key": {"sTIM-3 [1]": {"molecular_target": "T1, sTIM-3 (Homo sapiens, UniProt Q8TDQ0, F61A)", "T1 sequence (Q8TDQ0 22-202 F61A limits assumed)": "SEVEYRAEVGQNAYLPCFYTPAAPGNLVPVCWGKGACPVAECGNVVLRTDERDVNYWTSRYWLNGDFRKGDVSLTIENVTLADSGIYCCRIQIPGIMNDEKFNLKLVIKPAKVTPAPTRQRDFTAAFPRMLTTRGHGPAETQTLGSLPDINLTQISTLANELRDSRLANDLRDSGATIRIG"}, "sTIM-3 [2]": {"molecular_target": "T2, sTIM-3 (Homo sapiens, UniProt Q8TDQ0)", "T2 sequence (Q8TDQ0 22-202 limits assumed)": "T1 sequence (Q8TDQ0 22-202 F61A limits assumed) with A40F"}, "sTIM-3 [3]": {"molecular_target": "T3, sTIM-3 (Homo sapiens, UniProt Q8TDQ0, I117A/M118A)", "T3 sequence (Q8TDQ0 22-202 I117A/M118A limits assumed)": "T1 sequence (Q8TDQ0 22-202 F61A limits assumed) with A40F, I96A, M97A"}, "sTIM-1": {"molecular_target": "T4, sTIM-1 (Homo sapiens, UniProt Q96D42)", "T4 sequence (Q96D42 21-295 limits assumed)": "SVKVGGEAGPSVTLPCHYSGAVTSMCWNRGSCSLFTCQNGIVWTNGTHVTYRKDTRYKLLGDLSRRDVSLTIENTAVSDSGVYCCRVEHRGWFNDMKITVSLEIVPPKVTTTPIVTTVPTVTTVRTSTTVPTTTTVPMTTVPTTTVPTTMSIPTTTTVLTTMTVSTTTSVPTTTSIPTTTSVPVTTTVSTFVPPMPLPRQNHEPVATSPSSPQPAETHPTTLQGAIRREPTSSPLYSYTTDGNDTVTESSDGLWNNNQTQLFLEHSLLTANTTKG"}, "sTIM-4": {"molecular_target": "T5, sTIM-4 (Homo sapiens, UniProt Q96H15)", "T5 sequence (Q96H15 25-314 limits assumed)": "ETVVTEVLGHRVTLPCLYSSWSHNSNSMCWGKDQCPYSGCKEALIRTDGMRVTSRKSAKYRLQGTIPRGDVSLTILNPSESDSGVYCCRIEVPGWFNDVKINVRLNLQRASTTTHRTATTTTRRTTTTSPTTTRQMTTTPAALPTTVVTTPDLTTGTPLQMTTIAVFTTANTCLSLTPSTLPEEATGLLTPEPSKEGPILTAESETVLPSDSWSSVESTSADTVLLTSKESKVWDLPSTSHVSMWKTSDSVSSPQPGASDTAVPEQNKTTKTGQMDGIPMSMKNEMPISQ"}}, "note": "Changes are numbered by the printed parent chain.", "data": [{"smiles": "CCCCCCCC/C=C\\CCCCCCCC(=O)OC[C@H](COP(=O)(O)OC[C@H](N)C(=O)O)OC(=O)CCCCCCC/C=C\\CCCCCCCC", "note": "[DOPS]", "values": [{"measurement": "Kd", "setting": "sTIM-3 [1]", "value": "> 200", "unit": "µM"}, {"measurement": "Kd", "setting": "sTIM-3 [2]", "value": "9.7 ± 4.2", "unit": "µM"}, {"measurement": "Kd", "setting": "sTIM-3 [3]", "value": "> 200", "unit": "µM"}, {"measurement": "Kd", "setting": "sTIM-1", "value": "0.35 ± 0.05", "unit": "µM"}, {"measurement": "Kd", "setting": "sTIM-4", "value": "0.77 ± 0.32", "unit": "µM"}]}]}
